From PMC2951135 (Journal of medicinal chemistry, 2010)
“Also recorded” adds a separate entry of the source.

Tests used:
[1] = cited from earlier work
[2] = clinical trial abandoned by Genzyme; cited from earlier work
[3] = tested on: non iron-overloaded, bile duct-cannulated rats; details: po 300 μmol/kg; cited from earlier work
[4] = tested on: iron-overloaded C. apella primates; experiment: Chelator-induced iron clearance in iron-overloaded primates; type: in vivo, Cebus apella monkeys
[5] = tested on: non iron-overloaded, bile duct-cannulated rats; type: in vivo, Sprague-Dawley rats
rats [6] = experiment: Ten-day toxicity trial in rats; type: in vivo, Sprague-Dawley rats
rats [7] = experiment: Tissue iron decorporation in rats after 10 days of dosing; type: in vivo, Sprague-Dawley rats
[8] = Hydrolysis of ester 7 in monkey plasma; type: in vitro ADME, Cebus apella monkeys; details: Cebus apella monkey plasma, 37 °C, solubilized in DMSO
[9] = Control incubation of ester 7 with saline in place of plasma; type: in vitro ADME; details: 37 °C, 1 or 2 h
[10] = pH 7.4
[11] = Hydrolysis of ester 7 in rat plasma; type: in vitro ADME; details: 37 °C, solubilized in DMSO
[12] = orally once daily 384 μmol/kg/d × 10 d
[13] = po 75 μmol/kg by gavage as monosodium salt

In the case of `C[C@]1(C(=O)O)CSC(c2ncccc2O)=N1` [Compound 1, (S)-4,5-dihydro-2-(3-hydroxy-2-pyridinyl)-4-methyl-4-thiazolecarboxylic acid], the nephrotoxicity [1] is listed as “severely nephrotoxic”.

For `C[C@]1(C(=O)[O-])CSC(c2ccc(O)cc2O)=N1.[Na+]` [Compound 2, (S)-2-(2,4-dihydroxyphenyl)-4,5-dihydro-4-methyl-4-thiazolecarboxylic acid], the “toxicity that led to abandonment of the clinical trial” value [2] is listed as “nephrotoxicity; also recorded: renal toxicity”, the “relative percentage of the iron excreted in the bile (rodents)” value (“relative percentage … in the bile (rodents)” below) [3] is listed as 100% and the “relative percentage of the iron excreted in the urine (rodents)” value (“relative percentage … in the urine (rodents)” for short) [3] is listed as 0%.

For `COc1ccc(C2=N[C@@](C)(C(=O)[O-])CS2)c(O)c1.[Na+]` [Compound 3, (S)-4,5-dihydro-2-(2-hydroxy-4-methoxyphenyl)-4-methyl-4-thiazolecarboxylic acid], the “relative percentage … in the bile (rodents)” value [3] is given as 98%, the “relative percentage … in the urine (rodents)” value [3] is given as 2% and the nephrotoxicity [1] is given as “very nephrotoxic; also recorded: unacceptably nephrotoxic”.

In the case of `COCCOCCOCCOc1ccc(C2=N[C@@](C)(C(=O)O)CS2)c(O)c1` [Compound 4, (S)-4,5-dihydro-2-[2-hydroxy-4-(3,6,9-trioxadecyloxy)phenyl]-4-methyl-4-thiazolecarboxylic acid], the “ICE in primates relative to the longer analogue 5” value ([4]; monkey, in vivo) is given as 2.5, the “relative percentage … in the bile (rodents)” value [3] is given as 90% and the “relative percentage … in the urine (rodents)” value [3] is given as 10%. For the same compound, the nephrotoxicity [1] was “virtually absent of any nephrotoxicity”.

With `COCCOCCOCCOCCOc1ccc(C2=N[C@@](C)(C(=O)[O-])CS2)c(O)c1.[Na+]` [Compound 5, (S)-4,5-dihydro-2-[2-hydroxy-4-(3,6,9,12-tetraoxatridecyloxy)phenyl]-4-methyl-4-thiazolecarboxylic acid] the “ICE in rodents relative to the parent 2” value ([5]; po 300 μmol/kg) was roughly 11 times.

With `COCCOCCOc1ccc(C2=N[C@@](C)(C(=O)O)CS2)c(O)c1` [Compound 6, (S)-4,5-dihydro-2-[2-hydroxy-4-(3,6-dioxaheptyloxy)phenyl]-4-methyl-4-thiazolecarboxylic acid] the histopathology (rats [6]; [12]) was “no obvious histopathologies; also recorded: cannot be reliably differentiated histologically from the tissues from rats in Group 2; also recorded: no histological abnormalities noted between the treated and the control groups”, the “Primate Iron-Clearing Efficiency” value [4, 13] was 28.7 ± 12.4% and the “relative percentage of the iron excreted in the urine (primates)” value [4, 13] was 17%. For the same compound, the “Primate Iron-Clearing Efficiency” value ([4]; po 75 μmol/kg in capsules) was greater than 26%, the “relative percentage of the iron excreted in the feces (primates)” value ([4]; po 75 μmol/kg in capsules) was 93% and the “Performance Ratio (mean ICEprimates/ICErodents)” value ([4]; primates given the monosodium salt by gavage, rodents capsules) was 1.1. The “Rodent Iron-Clearing Efficiency” value ([5]; po 300 μmol/kg in capsules, 48 h sample collection period) was greater than 26%, the “reduction in pancreatic iron vs untreated controls” value (shortened to “reduction in pancreatic iron”) (rats [7]; capsules, 384 μmol/kg/d × 10 d) was “not when it was dosed in capsules” and the “reduction in pancreatic iron” value (rats [7]; gavage as sodium salt, 384 μmol/kg/d × 10 d) was “significant reduction in pancreatic iron”.

In the case of `CCOC(=O)[C@@]1(C)CSC(c2ccc(OCCOCCOC)cc2O)=N1` [Compound 7, ethyl (S)-4,5-dihydro-2-[2-hydroxy-4-(3,6-dioxaheptyloxy)phenyl]-4-methyl-4-thiazolecarboxylate], the histopathology (rats [6]; [12]) is reported as “Mild to moderate vacuolar degeneration of the proximal tubular epithelial cells; also recorded: unacceptable renal toxicity”, the histopathology (rats [6]; orally once daily in capsules 192 μmol/kg/d × 10 d) is reported as “no drug-related abnormalities” and the “time for conversion of all of the ester to the active acid 6” value [8] is reported as 1 to 2 h. For the same compound, the “decrease in cardiac iron vs untreated controls” value (rats [7]; capsules, 192 μmol/kg/d × 10 d) was “Neither dose was associated with a reduction in pancreatic or cardiac iron content”, the “reduction in pancreatic iron” value (rats [7]; capsules, 192 μmol/kg/d × 10 d) was “Neither dose was associated with a reduction in pancreatic or cardiac iron content” and the “decrease in cardiac iron vs untreated controls” value (rats [7]; capsules, 384 μmol/kg/d × 10 d) was “Neither dose was associated with a reduction in pancreatic or cardiac iron content”. The “reduction in pancreatic iron” value (rats [7]; capsules, 384 μmol/kg/d × 10 d) was “Neither dose was associated with a reduction in pancreatic or cardiac iron content”, the “stability of the ester in saline” value [9] was “all of the drug remained in the form of the ester” and the “times more lipophilic than the parent 2” value [10] was 11,220 times. The “time for conversion of all of the ester to the active acid 6” value [11] was 1 to 2 h.
